PubChem BioAssay (NCI)
Values joined by “and” are separate entries in the source; they are usually repeats but may differ in a detail not shown here. Equal values may be shown once.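 How tested: cells in 96-well plates exposed to compound for 48 hours at five concentrations. GI50: concentration for 50% inhibition of growth. The concentration for full growth arrest is given as TGI.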

Columns and labels:
Assay in all cases: NCI-60 cell line screen, 48 h
COLO 205 colon = test system: COLO 205 colon
HCT-116 colon = test system: HCT-116 colon
KM12 colon = test system: KM12 colon
NCI-H460 lung = test system: NCI-H460 lung
OVCAR-3 ovarian = test system: OVCAR-3 ovarian
OVCAR-5 ovarian = test system: OVCAR-5 ovarian
SF-268 CNS = test system: SF-268 CNS
SK-MEL-2 melanoma = test system: SK-MEL-2 melanoma
SR leukemia = test system: SR leukemia
UO-31 renal = test system: UO-31 renal

Structure (SMILES)	TGI (COLO 205 colon)	TGI (HCT-116 colon)	TGI (KM12 colon)	TGI (NCI-H460 lung)	TGI (OVCAR-3 ovarian)	TGI (OVCAR-5 ovarian)	TGI (SF-268 CNS)	TGI (SK-MEL-2 melanoma)	TGI (SR leukemia)	TGI (UO-31 renal)	GI50 (COLO 205 colon)	GI50 (HCT-116 colon)	GI50 (KM12 colon)	GI50 (NCI-H460 lung)	GI50 (OVCAR-3 ovarian) [nM]	GI50 (OVCAR-5 ovarian)	GI50 (SF-268 CNS)	GI50 (SK-MEL-2 melanoma)	GI50 (SR leukemia)	GI50 (UO-31 renal)
CC1(C)CC2C=C(C=O)C3(C=O)CC3(C)C2C1 (configuration not stated)	4.25 µM	2.21 µM	13.5 µM	10.6 µM	2.27 µM	4.14 µM	6.02 µM	4.45 µM	2.45 µM	3.29 µM	–	–	–	–	–	–	–	–	–	–
COc1cccc(C2NC(=S)NC(C)=C2C(=O)Nc2ccc(F)c(Cl)c2)c1 (configuration not stated)	> 50 µM	> 50 µM	> 50 µM	> 50 µM	> 50 µM	38.9 µM	> 50 µM	> 50 µM	40.2 µM	> 50 µM	27.2 µM	23100 nM	18200 nM	43200 nM	41300	12.1 µM	28.7 µM	29.3 µM	15800 nM	20400 nM
COc1ccc(/C=C/c2cc(N3CCOCC3)c3cc(F)c(F)cc3n2)cc1OC	3.81 µM	10 µM	13.7 µM	3.72 µM	2.26 µM	11.9 µM	16.5 µM	11.5 µM	6.78 µM	10.3 µM	0.558 µM	414 nM	1240 nM	526 nM	351	2.01 µM	0.775 µM	2.39 µM	431 nM	347 nM
CC(=O)OC1CCC2(C)C(=CCC3C2CCC2(C)C(C(C)C(=O)O)CCC32)C1 (configuration not stated)	> 100 µM	> 100 µM	> 100 µM	> 100 µM	> 100 µM	> 100 µM	> 100 µM	> 100 µM	> 100 µM	> 100 µM	–	–	–	–	–	–	–	–	–	–
O=c1[nH]c(SCc2c(Cl)c(Cl)c(Cl)c(Cl)c2Cl)nc(=S)[nH]1	33.8 µM	> 100 µM	> 100 µM	> 100 µM	31 µM	> 100 µM	> 100 µM	> 100 µM	0.516 µM	> 58.9 µM	–	–	–	–	–	–	–	–	–	–
CC(=O)OC[C@]12CC[C@@H]([C@@H](C)C(N)=O)[C@@H]1[C@H]1CC[C@@H]3[C@@]4(C)CC[C@H](OC(C)=O)C(C)(C)[C@@H]4CC[C@@]3(C)[C@]1(C)CC2	25 µM	14.7 µM	15.8 µM	30.9 µM	13.3 µM	32.2 µM	22.3 µM	27.5 µM	23.5 µM	21.1 µM	4.31 µM	3570 nM	3860 nM	13400 nM	3950	14.4 µM	6.95 µM	10.8 µM	3320 nM	7570 nM
Cc1cc(C)cc(Sc2c([N+](=O)[O-])ncn2C)c1	31.8 µM	32.4 µM	53.8 µM	> 100 µM	34.3 µM	53.5 µM	33.9 µM	25.8 µM	41 µM	85.9 µM	–	–	–	–	–	–	–	–	–	–
CCCCN(CCCC)CCCN=c1nc2c(c(N)n1-c1ccccc1)c(=S)n(-c1ccccc1)c(=S)n2-c1ccccc1	1.39 µM	1.5 µM	1.46 µM	1.71 µM	2.3 µM	3.24 µM	2.47 µM	3.47 µM	1.46 µM	1.02 µM	0.329 µM	412 nM	415 nM	483 nM	997	1.67 µM	1.14 µM	1.74 µM	273 nM	389 nM
C#CCNC(=O)CC[C@]1(C)[C@H]2CC[C@@H]3[C@@H]([C@@](C)(O)CCC=C(C)C)CC[C@@]3(C)[C@]2(C)CC[C@H]1C(=C)C	> 100 µM	35.6 µM	> 100 µM	> 100 µM	89.9 µM	> 100 µM	57.1 µM	> 100 µM	19.2 µM	29.1 µM	31.9 µM	17800 nM	38500 nM	31200 nM	31300	51.9 µM	22 µM	47.1 µM	3050 nM	14100 nM
CC1(C)C(=S)C(C)(C)C1=S	> 100 µM	> 100 µM	> 100 µM	> 100 µM	> 100 µM	> 100 µM	> 100 µM	> 100 µM	> 100 µM	> 100 µM	–	–	–	–	–	–	–	–	–	–
OC(COc1cccc2ccccc12)CN1CCN(c2ccccc2)CC1 (configuration not stated)	30.9 µM	27 µM	31 µM	31 µM	28.8 µM	30.8 µM	31.3 µM	30.6 µM	41.3 µM	20.4 µM	16.4 µM	13400 nM	16100 nM	15900 nM	15100	16.4 µM	16.4 µM	16.2 µM	16100 nM	5940 nM
N#Cc1cccc(NC(=O)c2oc3ccccc3c2-c2cnn(-c3ccccc3)c2)c1	> 500 µM	> 500 µM	> 500 µM	> 500 µM	> 500 µM	> 500 µM	> 500 µM	> 500 µM	> 500 µM	> 500 µM	> 500 µM	> 500000 nM	> 500000 nM	> 500000 nM	> 500000	> 500 µM	304 µM	> 500 µM	148000 nM	41200 nM
CCOC(=O)C(=O)N=Nc1nc2c(O)c3ccccc3c(O)c2s1	25.2 µM	5.96 µM	20.8 µM	26.7 µM	4.07 µM	16.1 µM	10.8 µM	8.98 µM	> 100 µM	6.12 µM	–	–	–	–	–	–	–	–	–	–
O=C(Nc1ccccc1Br)c1cccc([N+](=O)[O-])c1O	> 33.4 µM	14.8 µM	19.3 µM	> 37.9 µM	7.51 µM	> 94 µM	> 100 µM	52.7 µM	33 µM	5.73 µM	–	–	–	–	–	–	–	–	–	–
COc1ccc(/C=C\c2cc(OC)c(OC)c(OC)c2)cc1OC(=O)c1cccc(Cn2cc(CCOC(=O)c3cccc(Cn4nnc5c4C(=O)c4ccccc4C5=O)c3)nn2)c1	–	> 33.2 µM	> 77.6 µM	12.6 µM	–	> 100 µM	35 µM	33.1 µM	> 100 µM	79.5 µM	0.344 µM	< 10 nM	< 13.3 nM	< 10 nM	< 10	0.0542 µM	0.0395 µM	–	< 10 nM	160 nM
COc1ccc(-c2nn(-c3cccc(NC(=O)Nc4cc(C(F)(F)F)cc(C(F)(F)F)c4)c3)cc2-c2ccncc2)cc1Cl	1.74 µM	2.17 µM	4.17 µM	4.9 µM	4.56 µM	9.17 µM	8.68 µM	2.8 µM	3.13 µM	7.32 µM	0.894 µM	649 nM	1090 nM	872 nM	680	1.4 µM	1.59 µM	1.23 µM	1020 nM	799 nM
C#COc1cccc(Nc2ncnc3ncc(NC(=O)CCl)cc23)c1	> 62.5 µM	> 62.5 µM	> 62.5 µM	> 62.5 µM	> 62.5 µM	> 62.5 µM	> 62.5 µM	> 62.5 µM	> 62.5 µM	> 33.2 µM	> 26.8 µM	239 nM	> 28400 nM	–	> 25000	> 47.4 µM	> 22.3 µM	> 57.7 µM	–	> 14000 nM
COc1cc([C@@H]2c3cc4c(cc3[C@@H](O[C@@H]3O[C@@H]5CO[C@@H](c6cccs6)O[C@H]5[C@H](O)[C@H]3O)[C@H]3COC(=O)[C@H]23)OCO4)cc(OC)c1O	8.94 µM	4.81 µM	4.34 µM	2.09 µM	5.45 µM	8.27 µM	7.2 µM	4.84 µM	15 µM	14.7 µM	1.88 µM	344 nM	634 nM	23 nM	1420	1.56 µM	0.266 µM	1.33 µM	10.1 nM	1780 nM
COC(=O)Nc1nc2cc3c(cc2s1)OCCO3	> 50 µM	> 50 µM	> 50 µM	> 50 µM	> 50 µM	> 50 µM	> 50 µM	> 50 µM	> 50 µM	> 50 µM	> 50 µM	> 50000 nM	> 50000 nM	> 50000 nM	> 50000	> 50 µM	> 50 µM	> 50 µM	> 50000 nM	> 50000 nM
Nc1ccccc1NC(=O)c1ccc(CN2CCC/C(=C\c3cccc(Cl)c3)C2=O)cc1	–	> 100 µM	13.4 µM	> 100 µM	7.7 µM	> 100 µM	6.74 µM	18.2 µM	> 100 µM	6.14 µM	0.157 µM	44.8 nM	378 nM	96.2 nM	406	0.45 µM	1.41 µM	1.23 µM	156 nM	1400 nM
COc1cc2c3c(n(C)c(=O)c2cc1OC)-c1cc2c(cc1/C3=C\CCCBr)OCO2	55.8 µM	> 60.8 µM	> 100 µM	> 100 µM	> 100 µM	> 70.6 µM	> 54.8 µM	69.4 µM	> 100 µM	> 100 µM	18.8 µM	27200 nM	> 100000 nM	26900 nM	> 92200	19.3 µM	16.1 µM	21.3 µM	13300 nM	> 49700 nM
COc1c(CNC(=O)CCl)cc2[nH]c(C)cc2c1CNC(=O)CCl	27.8 µM	15.7 µM	19.4 µM	15.6 µM	13 µM	25.9 µM	21.7 µM	41.6 µM	> 100 µM	56.7 µM	10.6 µM	2930 nM	6080 nM	3730 nM	3410	5.44 µM	3.44 µM	11 µM	4360 nM	15700 nM
Cc1cc(-c2nc(-c3ccc(OC(F)(F)F)cc3)no2)nn1Cc1ccnc(N2CCN(C3CC3)CC2)c1	25.7 µM	> 100 µM	> 91.9 µM	55.3 µM	> 100 µM	> 100 µM	> 100 µM	> 100 µM	> 74 µM	> 100 µM	3.27 µM	< 10 nM	6880 nM	4940 nM	10300	> 37.5 µM	> 42.7 µM	> 42.1 µM	–	4400 nM
c1ccc(-c2nn(-c3ccccc3)[n+](-c3cccc4ccccc34)n2)cc1	1.28 µM	17.9 µM	11.3 µM	10.4 µM	19.1 µM	63.2 µM	20.5 µM	12 µM	7.93 µM	> 100 µM	0.313 µM	708 nM	701 nM	1430 nM	1110	4.78 µM	2.04 µM	2.92 µM	644 nM	14000 nM
Oc1cc(O)c2c(=S)cc(-c3ccc(Cl)cc3)oc2c1	33.6 µM	10.4 µM	11.5 µM	13.3 µM	8.94 µM	32.5 µM	21.3 µM	7.46 µM	29.6 µM	8.58 µM	15.3 µM	2840 nM	2080 nM	2960 nM	1520	11.1 µM	3.23 µM	2.61 µM	3520 nM	1210 nM
C=CCN(/C=C1\C(=O)O[C@H](COC)[C@@]2(C)C1=C(O)C(=O)C1=C2[C@H](OC(C)=O)C[C@]2(C)C(=O)CC[C@@H]12)CC=C	20 µM and 26.3 µM	20 µM and > 100 µM	20 µM and 46.4 µM	20 µM and > 100 µM	20 µM and 4.16 µM	20 µM and 76.4 µM	20 µM and > 100 µM	20 µM and 8.33 µM	20 µM and 8.02 µM	20 µM and > 100 µM	5.04 µM and 1.94 µM	3910 nM and 1760 nM	979 nM and 2190 nM	278 nM and 374 nM	–	2.34 µM and 0.737 µM	0.992 µM and 1.46 µM	3.67 µM and 1.48 µM	860 nM and 644 nM	1510 nM and 331 nM
COC(=O)[C@H](CC(C)C)NC(=O)NC(=O)NC(=O)CI	3.47 µM	22.8 µM	32.8 µM	41.5 µM	3.51 µM	30 µM	29.1 µM	27.9 µM	4.37 µM	3.13 µM	1.79 µM	10000 nM	15800 nM	18700 nM	1990	14.3 µM	11.3 µM	13.7 µM	1250 nM	1640 nM
